# From PubChem BioAssay (NCI)
# Several values for one entry are separate records, joined by “and”; a condition that tells them apart may be missing. Equal values may be shown once.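 Five compound concentrations were applied to cells in 96-well plates for 48 hours; endpoints were derived by simple linear interpolation of the resulting dose-response curve. GI50 marks 50% less growth. Definition used: TGI = concentration required for complete inhibition of growth.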 Where a SMILES comes first, the peptide text is derived from it. [ ]: non-standard residue; d: D form. 2Nal = N[CH](Cc1ccc2ccccc2c1)C(=O)O
# Experiments:
# Assay in all cases: DTP human tumour cell line panel, 48 h
# SK-MEL-5 melanoma = system: SK-MEL-5 melanoma
# UO-31 renal = system: UO-31 renal
# MOLT-4 leukemia = system: MOLT-4 leukemia
# T-47D breast = system: T-47D breast
# SNB-19 CNS = system: SNB-19 CNS
# NCI-H226 lung = system: NCI-H226 lung
# HOP-62 NSCLC = system: HOP-62 NSCLC
# A549 NSCLC = system: A549 NSCLC
# KM12 colon = system: KM12 colon
# HCT-15 colon = system: HCT-15 colon
Structure (SMILES),GI50 (SK-MEL-5 melanoma) [µM],TGI (SK-MEL-5 melanoma) [µM],GI50 (UO-31 renal) [nM],TGI (UO-31 renal),GI50 (MOLT-4 leukemia) [nM],TGI (MOLT-4 leukemia),GI50 (T-47D breast) [nM],TGI (T-47D breast) [µM],GI50 (SNB-19 CNS),TGI (SNB-19 CNS) [µM],GI50 (NCI-H226 lung),TGI (NCI-H226 lung),GI50 (HOP-62 NSCLC) [nM],TGI (HOP-62 NSCLC),GI50 (A549 NSCLC) [nM],TGI (A549 NSCLC),GI50 (KM12 colon) [nM],TGI (KM12 colon),GI50 (HCT-15 colon),TGI (HCT-15 colon)
CC(=O)C1CCC2C3CC=C4CC(SC(=N)N)CCC4(C)C3CCC12C (centres undefined),1.65,3.01,2360,7.54 µM,1780,4.19 µM,2020,4.85,3.12 µM,32.1,2900 nM,9.26 µM,1930,3.6 µM,1820,3.61 µM,,,,
CC(C)C(NC(=O)C(CCCCN)NC(=O)C(Cc1c[nH]c2ccccc12)NC(=O)C(Cc1ccc(O)cc1)NC(=O)C(CS)NC(=O)C(N)Cc1ccc2ccccc2c1)C(=O)NC(CS)C(=O)NC(C(N)=O)C(C)O (centres undefined) (H-[2Nal]CYWKVCT-NH2; configuration not given here),,> 12.5,> 100000,> 100 µM,> 100000,> 100 µM,,> 12.5,,> 100,,> 12.5 µM,> 100000,> 100 µM,> 100000,> 100 µM,> 100000,> 100 µM,> 100000 nM,> 100 µM
O=c1c(-c2ccc(O)cc2)coc2cc(OC3OC(CO)C(O)C(O)C3O)cc(O)c12 (centres undefined),> 100,> 100,,> 100 µM,> 10000,> 100 µM,> 100000,> 100,,> 100,,> 100 µM,> 100000,> 100 µM,> 10000,> 100 µM,,> 100 µM,,> 100 µM
COC(=O)C1=C(C(=O)OC)C2OC1c1cc3ccccc3cc12,,30.8,,2.91 µM,,3.22 µM,,7.49,,33.5,,11.6 µM,,34.7 µM,,37 µM,,> 58.1 µM,,8.09 µM
CCOC(=O)c1csc(NC(=O)COc2cccc(/C=C3\CSc4ccccc4C3=O)c2)n1,5.04,17.3,145,0.286 µM,> 100000,> 100 µM,6790,26.7,9.19 µM,22.7,1520 nM,3.41 µM,1330,3.9 µM,2410,18.5 µM,289,1.35 µM,2060 nM,4.62 µM
COc1cc(/C=C\c2cc(/C=C\c3ccc(O)c(OC)c3)n(C(=O)CNc3ccc(Cl)cc3)n2)ccc1O,3.24,11.3,1210,8.42 µM,2050,15.6 µM,2790,16,3.18 µM,14.1,4390 nM,21.6 µM,4140,16.7 µM,3940,16.5 µM,2640,13.1 µM,2540 nM,12.2 µM
CCOc1c(C#N)c2c(N)ncnc2n1C1OC(CO)C(O)C1O (centres undefined),3.79,16.6,2860,> 40.3 µM,2950,15.1 µM,1980,20.2,9.1 µM,> 100,6930 nM,> 91.8 µM,5010,26.5 µM,2270,> 100 µM,3110,> 44.2 µM,2150 nM,> 100 µM
COC(=O)C(=O)C(C(=O)C(=O)Nc1ccc(C)cc1)c1nc2ccc(C(=O)c3ccccc3)cc2[nH]c1=O (centres undefined),,> 100,,> 100 µM,,,,> 100,,> 100,,> 100 µM,,> 100 µM,,> 100 µM,,> 100 µM,,> 100 µM
CCc1nc2cc(/C=C/C(=O)NO)ccc2c(=O)n1CCc1ccc(F)cc1,0.903,2.21,1410,3.11 µM,1790,> 100 µM,629,6.23,1.82 µM,5.34,1710 nM,4.59 µM,1500,4.44 µM,1720,4.58 µM,2200,14.3 µM,1570 nM,39.6 µM
COc1ccc(/C=C\c2cc(OC)c(OC)c(OC)c2)c(O)c1O,< 0.015,,6760,33.7 µM and > 77.8 µM,456,20.8 µM and 3.4 µM,,> 79.7,0.0517 µM and 0.05 µM,85.3,297 nM and 50 nM,1.69 µM and 1.62 µM,1980,68.8 µM and 109 µM,75.4,> 70.1 µM and 88.7 µM,56.8,7.42 µM and 25.4 µM,62.8 nM and 64.3 nM,> 57.5 µM and 8.27 µM
CC1=NN(C(=O)c2ccncc2)C(=O)C1N=Nc1ccc2ccccc2c1 (centres undefined),,> 100,,> 100 µM,,> 38.1 µM,,> 100,,> 100,,> 100 µM,,> 100 µM,,> 100 µM,,> 100 µM,,> 100 µM
Cc1nnc(-c2ccc(C)c(-c3ccc(C(=O)NCc4ccc(Cl)cc4)cc3)c2)o1,3.97,9.53,4370,> 25 µM,9730,> 25 µM,4130,> 19.2,> 22.6 µM,> 25,6930 nM,> 25 µM,14700,> 25 µM,11500,> 25 µM,11000,> 25 µM,11700 nM,> 25 µM
CC(=O)O[C@H]1C(=O)[C@@]2(C)[C@H]([C@H](OC(=O)c3ccccc3)[C@@]3(O)C[C@H](O)C(C)=C1C3(C)C)[C@]1(OC(C)=O)CO[C@@H]1C[C@@H]2O,,> 100,,> 100 µM,,> 100 µM,,> 100,,> 100,,> 100 µM,,> 100 µM,,> 100 µM,,> 100 µM,,> 100 µM
O=S(=O)(Nc1ccc2ccccc2c1)c1ccc(-c2cnc(C3CC3)o2)cc1,0.829,12.7,1680,18.8 µM,873,> 100 µM,1010,58.3,1.49 µM,> 100,3990 nM,20.4 µM,1300,17.1 µM,1740,> 100 µM,624,14.7 µM,557 nM,19.2 µM
